For the experiment, the system named is ICR mouse. The experiment in a line: Streptozotocin-induced diabetes in ICR mice. The conditions noted are these: 60 mg/kg three times i.p., normal ICR mouse 200 mg/dl. The experiment is classed as in vivo. As to the method: FIG. 7 illustrates the effect of PL on experimental group with streptozotocin-induced diabetes. Blood glucose values were measured with Accutrend sensor system (Boehringer Mannheim, Germany).
Streptozotocin, which can induce Insulin-dependent diabetes mellitus, destroys selectively pancreatic beta cells, and diabetes mellitus induced :by streptozotocin is similar with diabetes naturally occurring in NOD mice. […] ICR mouse received 60 mg/kg of streptozotocin three times with intraperitoneal injection. Streptozotocin was used in solution of citrate buffer (pH 4.2, 4° C.). The blood glucose level of ICR mouse treated with streptozotocin was 450 mg/dl, whereas that of normal ICR mouse without streptozotocin was 200 mg/dl (FIG. 7).

The compound `CN(N=O)C(=O)N[C@H]1C(O)O[C@H](CO)[C@@H](O)[C@@H]1O` (mixture of isomers) [streptozotocin] yielded a blood glucose level of 450 mg/dL.
